Tests used:
[1] = target: T1, CK2α (full-length, NanoLuc fusion) (Homo sapiens, UniProt P68400); assay: cell-based; parameters: species or system HEK293T
[2] = target: T2, CK2α’ (full-length, NanoLuc fusion) (Homo sapiens, UniProt P19784); assay: cell-based; parameters: species or system HEK293T
[3] = target: T2, CK2α’ (full-length, NanoLuc fusion); assay: NanoBRET tracer displacement, intact HEK293T; assay type: cell-based; conditions: intact cells, […] h, […] °C, tracer competition
[4] = target: T1, CK2α (full-length, NanoLuc fusion); assay: NanoBRET tracer displacement, intact HEK293T; assay type: cell-based; conditions: intact cells, […] h, […] °C, tracer competition

T2 sequence (P19784 whole entry, the tested form may be a part): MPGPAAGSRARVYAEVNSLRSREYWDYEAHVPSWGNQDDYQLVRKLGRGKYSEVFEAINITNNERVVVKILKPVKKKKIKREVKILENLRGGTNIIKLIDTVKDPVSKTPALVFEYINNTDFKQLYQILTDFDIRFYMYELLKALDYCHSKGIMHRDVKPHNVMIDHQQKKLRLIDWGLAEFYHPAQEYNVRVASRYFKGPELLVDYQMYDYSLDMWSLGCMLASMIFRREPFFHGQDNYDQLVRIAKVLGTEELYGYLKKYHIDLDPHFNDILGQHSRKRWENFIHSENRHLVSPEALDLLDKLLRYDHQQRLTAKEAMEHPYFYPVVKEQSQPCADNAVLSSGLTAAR
T1 sequence (P68400 whole entry, the tested form may be a part): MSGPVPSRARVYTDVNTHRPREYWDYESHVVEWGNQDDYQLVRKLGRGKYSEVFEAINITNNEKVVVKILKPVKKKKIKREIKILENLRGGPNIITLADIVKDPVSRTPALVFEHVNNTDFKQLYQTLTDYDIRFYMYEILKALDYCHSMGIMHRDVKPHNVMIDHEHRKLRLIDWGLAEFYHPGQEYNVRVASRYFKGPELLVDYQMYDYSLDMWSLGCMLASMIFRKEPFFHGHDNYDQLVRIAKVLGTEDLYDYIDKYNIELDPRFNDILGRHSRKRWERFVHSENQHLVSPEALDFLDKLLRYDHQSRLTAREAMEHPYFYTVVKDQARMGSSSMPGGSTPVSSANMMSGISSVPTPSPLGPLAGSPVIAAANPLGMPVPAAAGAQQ

Structure (SMILES)	IC50 [1]	IC50 [2]	IC50 [3]	IC50 [4]
CC(C)(C)OC(=O)N(CCOCCO)c1ccn2ncc(-c3ccc(C#N)c(O)c3)c2n1 [compound 23, tert-Butyl N-[3-(4-cyano-3-hydroxyphenyl)pyrazolo[1,5-a]pyrimidin-5-yl]-N-[2-(2-hydroxyethoxy)ethyl]carbamate]	> 50 µM	> 50 µM		
CC(C)(C)OC(=O)N1CCOCCOc2cc(ccc2C(=O)O)-c2cnn3ccc1nc23 [compound 32, 13-[(tert-Butoxy)carbonyl]-7,10-dioxa-13,17,18,21-tetraazatetracyclo[12.5.2.1^2,^6.0^17,^20]docosa-1(20),2,4,6(22),14(21),15,18-heptaene-5-carboxylic acid]			7.39 µM	
O=C(O)c1ccc2cc1OCCOCCNc1ccn3ncc-2c3n1 [compound 34, 7,10-Dioxa-13,17,18,21-tetraazatetracyclo[12.5.2.1^2,^6.0^17,^20]docosa-1(20),2,4,6(22),14(21),15,18-heptaene-5-carboxylic acid]			16.2 µM	5.7 µM

Source: publication doi:10.1101/2020.06.27.175109v1 (biorxiv, 2020)
